Consider 34 compounds from ChEMBL document CHEMBL1955722, “1,2,4-Oxadiazoles: a new class of anti-prostate cancer agents” (Bioorg Med Chem Lett, 2012).

Series [1] deals with DU-145. The experiment in a line: Cytotoxicity against human androgen-independent DU145 cells at 1 uM by MTT assay. Format: functional. On the technique in general: Tetrazolium assays rely on reduction of a dye to a coloured formazan, in cell work by metabolically active cells.
Series [2] has as its system LNCaP. The experiment in a line: Cytotoxicity against human androgen-dependent LNCAP cells at 1 uM by MTT assay. It counts as functional.
A further series has as its system MCF-10A. The experiment in a line: Cytotoxicity against human MCF10A cells at 1 uM by MTT assay. It counts as cell-based.
In series [3] the test system is DU-145. The experiment in a line: Cytotoxicity against human androgen-independent DU145 cells by MTT assay. Format: functional, cell-based.
Series [4] deals with PC-3. Nature of the series: Cytotoxicity against human androgen-independent PC3 cells by MTT assay. Format: functional, cell-based.
Series [5] relates to LNCaP. Nature of the series: Cytotoxicity against human androgen-dependent LNCAP cells by MTT assay. Format: functional, cell-based.
Series [6] concerns PC-3. The experiment in a line: Cytotoxicity against human androgen-independent PC3 cells at 1 uM by MTT assay. Format: functional.
Series [7] has as its system DU-145. Nature of the series: Ratio of doxorubicin IC50 to compound IC50 for human androgen-independent DU145 cells.

Structures are written as SMILES. Bounds are passed on as bounds.

Take `CC(O)(CSc1ccc(Cl)cc1)c1nc(-c2ccc([N+](=O)[O-])c(C(F)(F)F)c2)no1` (centres undefined): the Activity with DU-145 [1] was determined as 48.93%; in the series with LNCaP [2] it was 28.93%; with MCF-10A it was 10.35%; with PC-3 [6] it was 39.61%. The IC50 (in general, the concentration needed to halve the response being measured) in the series on DU-145 [3] was 1.3 µM; in the series on PC-3 [4], 3 µM; in the series on LNCaP [5] it was over 100 µM.
With `CC(O)(CSc1ccc(Br)cc1)c1nc(-c2ccc([N+](=O)[O-])c(C(F)(F)F)c2)no1` (centres undefined), the Activity was 48.71% in the series on DU-145 [1], 27.45% with LNCaP [2], 10.55% in the series on MCF-10A and 31.77% with PC-3 [6]. For the same compound, the results for the IC50 with DU-145 [3], in the series on PC-3 [4] and in the series on LNCaP [5] were 1.6 µM, 51 µM and 40 µM, respectively.
In the series on DU-145 [3], `CC(O)(CSc1ccccc1)c1nc(-c2ccccc2)no1` (centres undefined) displayed an IC50 of over 100 µM.
The same measure, in the same setting: as for `CC(O)(CSc1ccc(F)cc1)c1nc(-c2ccccc2)no1` (centres undefined), the figure is over 100 µM; as for `CC(O)(CSc1ccc(Cl)cc1)c1nc(-c2ccccc2)no1` (centres undefined), 70.7 µM.
With `CC(O)(CSc1ccc(Br)cc1)c1nc(-c2ccccc2)no1` (centres undefined), in the series with DU-145 [3], the IC50 was over 100 µM.
In turn, `CC(O)(CSc1ccccc1)c1nc(-c2ccc(Cl)cc2)no1` (centres undefined) displayed an IC50 with DU-145 [3] of 4.5 µM.
On the same count and under the same terms, the same measure for `CC(O)(CSc1ccc(F)cc1)c1nc(-c2ccc(Cl)cc2)no1` (centres undefined): 36.2 µM; for `CC(O)(CSc1ccc(Cl)cc1)c1nc(-c2ccc(Cl)cc2)no1` (centres undefined): 14.5 µM; for `CC(O)(CSc1ccc(Br)cc1)c1nc(-c2ccc(Cl)cc2)no1` (centres undefined): 6.5 µM.
In the series on DU-145 [3], `CC(O)(CSc1ccccc1)c1nc(-c2ccc(F)c(Cl)c2)no1` (centres undefined) yielded an IC50 of 5.5 µM.
On to `CC(O)(CSc1ccc(F)cc1)c1nc(-c2ccc(F)c(Cl)c2)no1` (centres undefined), for which the Activity is 47.84% in the series on DU-145 [1], 32.86% in the series with LNCaP [2], 12.44% in the series on MCF-10A and 40.77% in the series with PC-3 [6]. Also, the values for the IC50 in the series with DU-145 [3], in the series on PC-3 [4] and in the series with LNCaP [5] were 2.9 µM, 11.5 µM and over 100 µM, respectively.
As for `CC(O)(CSc1ccc(Cl)cc1)c1nc(-c2ccc(F)c(Cl)c2)no1` (centres undefined), the Activity is 68.41% in the series on DU-145 [1], 33.85% with LNCaP [2], 10.62% with MCF-10A and 44.39% with PC-3 [6]. In the series on DU-145 [7], the “Ratio IC50” value is 11.6. For the same compound, the IC50 in the series on DU-145 [3] stood at 0.5 µM; in the series with PC-3 [4], 10 µM; in the series on LNCaP [5] it was 26.4 µM.
Take `CC(O)(CSc1ccc(Br)cc1)c1nc(-c2ccc(F)c(Cl)c2)no1` (centres undefined): in the series with DU-145 [3], the IC50 came out at 8.8 µM.
With `CC(O)(CSc1ccccc1)c1nc(-c2ccc([N+](=O)[O-])c(C(F)(F)F)c2)no1` (centres undefined), the Activity with DU-145 [1] came to 49.62%; in the series on LNCaP [2], 31.1%; in the series on MCF-10A, 12.62%; in the series with PC-3 [6], 49.02%. Besides, the IC50 in the series with DU-145 [3] was determined as 3 µM; in the series on PC-3 [4], 3.5 µM; with LNCaP [5], 9.67 µM.
Take `CC(O)(CSc1ccc(F)cc1)c1nc(-c2ccc([N+](=O)[O-])c(C(F)(F)F)c2)no1` (centres undefined): the Activity is reported as 47.28% with DU-145 [1], 26.88% in the series on LNCaP [2], 11.35% with MCF-10A and 46.89% in the series on PC-3 [6]. The IC50 in the series on DU-145 [3] turned out to be 5.1 µM; in the series on PC-3 [4], 5.5 µM; in the series on LNCaP [5], 8.15 µM.
For the compound `CC(O)(CS(=O)(=O)c1ccccc1)c1nc(-c2ccccc2)no1` (centres undefined), the IC50 in the series with DU-145 [3] is over 100 µM.
`CC(O)(CS(=O)(=O)c1ccc(F)cc1)c1nc(-c2ccccc2)no1` (centres undefined): the IC50 in the series on DU-145 [3] was over 100 µM.
On the same count and under the same terms, the same measure for `CC(O)(CS(=O)(=O)c1ccc(Cl)cc1)c1nc(-c2ccccc2)no1` (centres undefined): over 100 µM; for `CC(O)(CS(=O)(=O)c1ccc(Br)cc1)c1nc(-c2ccccc2)no1` (centres undefined): over 100 µM; for `CC(O)(CS(=O)(=O)c1ccccc1)c1nc(-c2ccc(Cl)cc2)no1` (centres undefined): over 100 µM.
Still for that read-out and setting: as for `CC(O)(CS(=O)(=O)c1ccc(F)cc1)c1nc(-c2ccc(Cl)cc2)no1` (centres undefined), the figure is over 100 µM.
On the same count and under the same terms, as for `CC(O)(CS(=O)(=O)c1ccc(Cl)cc1)c1nc(-c2ccc(Cl)cc2)no1` (centres undefined), the figure is over 100 µM.
With `CC(O)(CS(=O)(=O)c1ccc(Br)cc1)c1nc(-c2ccc(Cl)cc2)no1` (centres undefined), in the series with DU-145 [3], the 50% inhibitory concentration (IC50) is over 100 µM.
Still for that read-out and setting: as for `CC(O)(CS(=O)(=O)c1ccccc1)c1nc(-c2ccc(F)c(Cl)c2)no1` (centres undefined), the figure is over 100 µM.
The same measure, in the same setting: the same measure for `CC(O)(CS(=O)(=O)c1ccc(F)cc1)c1nc(-c2ccc(F)c(Cl)c2)no1` (centres undefined): over 100 µM; for `CC(O)(CS(=O)(=O)c1ccc(Cl)cc1)c1nc(-c2ccc(F)c(Cl)c2)no1` (centres undefined): 35.5 µM.
Still for that read-out and setting: as for `CC(O)(CS(=O)(=O)c1ccc(Br)cc1)c1nc(-c2ccc(F)c(Cl)c2)no1` (centres undefined), the figure is 75 µM.
In the series on DU-145 [3], `CC(O)(CS(=O)(=O)c1ccccc1)c1nc(-c2ccc([N+](=O)[O-])c(C(F)(F)F)c2)no1` (centres undefined) gave an IC50 of over 100 µM.
On the same count and under the same terms, as for `CC(O)(CS(=O)(=O)c1ccc(F)cc1)c1nc(-c2ccc([N+](=O)[O-])c(C(F)(F)F)c2)no1` (centres undefined), the figure is over 100 µM.
The same measure, in the same setting: as for `CC(O)(CS(=O)(=O)c1ccc(Cl)cc1)c1nc(-c2ccc([N+](=O)[O-])c(C(F)(F)F)c2)no1` (centres undefined), the figure is 91 µM.
On the same count and under the same terms, as for `CC(O)(CS(=O)(=O)c1ccc(Br)cc1)c1nc(-c2ccc([N+](=O)[O-])c(C(F)(F)F)c2)no1` (centres undefined), the figure is over 100 µM.
For the compound `CC(O)(CS(=O)(=O)c1ccc(F)cc1)C(=O)Nc1ccc(C#N)c(C(F)(F)F)c1` (centres undefined) [BICALUTAMIDE], the IC50 with DU-145 [3] was 64 µM; in the series with PC-3 [4], 77 µM; in the series on LNCaP [5], 1.71 µM.
For `COc1cccc2c1C(=O)c1c(O)c3c(c(O)c1C2=O)C[C@@](O)(C(=O)CO)C[C@@H]3O[C@H]1C[C@H](N)[C@H](O)[C@H](C)O1` [DOXORUBICIN], the IC50 in the series with DU-145 [3] came out at 5.8 µM; in the series on PC-3 [4], 1.05 µM.
